The target in one test is D(2) dopamine receptor (Bos taurus, UniProt P20288).
Another test has as its target D(1A) dopamine receptor (Bos taurus, UniProt Q95136).

Values joined by “and” are separate entries in the source; they are usually repeats but may differ in a detail not shown here. Equal values may be shown once. Where a name gives a salt, the structure may show the parent alone. Some results are limits rather than exact numbers.

D(2) dopamine receptor, sequence (P20288 whole entry): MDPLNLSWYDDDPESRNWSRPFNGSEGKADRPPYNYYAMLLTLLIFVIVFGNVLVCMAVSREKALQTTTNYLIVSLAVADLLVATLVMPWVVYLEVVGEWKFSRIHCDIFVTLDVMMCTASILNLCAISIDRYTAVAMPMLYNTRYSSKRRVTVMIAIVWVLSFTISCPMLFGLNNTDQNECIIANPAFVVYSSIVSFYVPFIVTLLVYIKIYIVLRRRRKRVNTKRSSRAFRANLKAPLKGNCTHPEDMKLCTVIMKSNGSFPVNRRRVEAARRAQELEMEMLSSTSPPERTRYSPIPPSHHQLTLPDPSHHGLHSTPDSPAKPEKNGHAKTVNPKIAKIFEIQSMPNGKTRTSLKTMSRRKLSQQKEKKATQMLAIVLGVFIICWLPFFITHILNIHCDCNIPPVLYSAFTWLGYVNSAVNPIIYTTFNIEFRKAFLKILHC
D(1A) dopamine receptor, sequence (Q95136 whole entry): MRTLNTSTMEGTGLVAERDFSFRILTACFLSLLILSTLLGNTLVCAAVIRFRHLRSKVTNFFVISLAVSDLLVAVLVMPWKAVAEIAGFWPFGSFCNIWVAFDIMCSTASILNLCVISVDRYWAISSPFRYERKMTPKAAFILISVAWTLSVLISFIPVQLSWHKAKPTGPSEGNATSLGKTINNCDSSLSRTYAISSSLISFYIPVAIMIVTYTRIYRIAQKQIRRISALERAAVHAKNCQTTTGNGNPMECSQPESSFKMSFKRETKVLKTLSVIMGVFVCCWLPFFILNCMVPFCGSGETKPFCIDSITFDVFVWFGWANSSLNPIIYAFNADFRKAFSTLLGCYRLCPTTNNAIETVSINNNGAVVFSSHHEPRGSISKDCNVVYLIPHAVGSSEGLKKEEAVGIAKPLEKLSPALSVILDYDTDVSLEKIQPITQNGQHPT

The term Ki denotes the equilibrium dissociation constant of an inhibitor or competing ligand from its target. `CCC(=O)C(CC(C)N(C)C)(c1ccccc1)c1ccccc1` (stereo not given) [CAS_5967-73-7]: the Ki is 2700 nM at D(2) dopamine receptor and more than 10000 nM at D(1A) dopamine receptor.
On the same counts, the results for `CN(C)CCCN1c2ccccc2Sc2ccc(C(F)(F)F)cc21` [TRIFLUPROMAZINE] are 2.1 nM and 530 nM.
For `OCCN1CCN(CC/C=C2/c3ccccc3Sc3ccc(Cl)cc32)CC1` [2-[4-[(3Z)-3-(2-chloro-9-thioxanthenylidene)propyl]-1-piperazinyl]ethanol;hydrochloride] the same measures were 3.1 nM and 480 nM.
Turning to `CSc1ccc2c(c1)N(CC[C@@H]1CCCCN1C)c1ccccc1S2` [10-[2-(1-Methyl-piperidin-2-yl)-ethyl]-2-methylsulfanyl-10H-phenothiazine (thioridazine)], the Ki on D(1A) dopamine receptor was 1800 nM and 1780 nM and 1810 nM.
On to `OCCC1CCN(CCC=C2c3ccc(F)cc3Sc3ccc(C(F)(F)F)cc32)CC1` [CAS_60197-32-2], for which the Ki at D(2) dopamine receptor worked out at 0.9 nM; at D(1A) dopamine receptor it was 67 nM.
For `O=C(CCCN1CCC(n2c(O)nc3ccccc32)CC1)c1ccc(F)cc1` [CAS_2062-84-2] the same measures were 0.33 nM and 4100 nM.
With `O=C(CCC(F)N1CCC(O)(c2cccc(C(F)(F)F)c2)CC1)c1ccccc1` (stereo not given) [CAS_749-13-3], the Ki at D(2) dopamine receptor is 0.95 nM; on D(1A) dopamine receptor, 740 nM.
On the same counts, the results for `Cc1ccc(C2(O)CCN(CCCC(=O)c3ccc(F)cc3)CC2)cc1` [NSC_4249] are 1.9 nM and 1200 nM.
For `OCCN1CCN(CCC=C2c3ccccc3Sc3ccc(Cl)cc32)CC1` [NSC_12454] the same measures were 88 nM and more than 10000 nM.
As to `CCc1c(C)[nH]c2c1C(=O)C(CN1CCOCC1)CC2` (stereo not given) [Moban], the Ki is 68 nM and 65 nM and 85 nM and 90 nM on D(2) dopamine receptor; more than 10000 nM on D(1A) dopamine receptor.
For `CC(C)[C@@]1(NC(=O)[C@@H]2C=C3c4cccc5[nH]cc(c45)C[C@H]3N(C)C2)O[C@@]2(O)[C@@H]3CCCN3C(=O)[C@H](Cc3ccccc3)N2C1=O` [SMR000058447], the Ki came to 1.4 nM on D(2) dopamine receptor and 52 nM at D(1A) dopamine receptor.
For `CN(C)CC/C=C1\c2ccccc2Sc2ccc(Cl)cc21` the same measures were 4.4 nM and 250 nM.
In the case of `O=c1[nH]c2ccccc2n1C1CCN(CCCC(c2ccc(F)cc2)c2ccc(F)cc2)CC1` [1-(1-(4,4-bis(4-fluorophenyl)butyl)piperidin-4-yl)-1H-benzo[d]imidazol-2(3H)-one], the Ki is 0.81 nM and 0.6 nM on D(2) dopamine receptor; 5300 nM and 7600 nM and 6800 nM at D(1A) dopamine receptor.
`NCC(O)c1ccc(O)c(O)c1` (stereo not drawn) [Noradrenaline,(+)]: the Ki on D(2) dopamine receptor is > 10000 nM and 5600 nM; at D(1A) dopamine receptor, 820 nM and 200 nM.
With `CN1C[C@H](C(=O)N[C@]2(C)O[C@@]3(O)[C@@H]4CCCN4C(=O)[C@H](Cc4ccccc4)N3C2=O)C=C2c3cccc4[nH]cc(c34)C[C@H]21` [12'-hydroxy-2'-methyl-5'alpha-(phenylmethyl)ergotaman-3',6',18-trione], the Ki was 1.8 nM on D(2) dopamine receptor and 30 nM on D(1A) dopamine receptor.
`CSc1ccc2c(c1)C(N1CCN(C)CC1)Cc1ccccc1S2` (stereo not given) [methanesulfonic acid;1-methyl-4-(3-methylsulfanyl-5,6-dihydrobenzo[b][1]benzothiepin-5-yl)piperazine]: the Ki at D(2) dopamine receptor was determined as 1.4 nM; on D(1A) dopamine receptor, 210 nM.
`CN1C2CCC1CC(OC(c1ccccc1)c1ccccc1)C2` (stereo not given): the Ki at D(2) dopamine receptor is 230 nM; on D(1A) dopamine receptor it was more than 10000 nM.
For the compound `COc1ccc2c(c1O)-c1c3c(cc4c1[C@H](C2)N(C)CC4)OCO3` [(S)-11-methoxy-7-methyl-6,7,7a,8-tetrahydro-5H-benzo[g][1,3]dioxolo[4',5':4,5]benzo[1,2,3-de]quinolin-12-ol], the Ki on D(2) dopamine receptor was 930 nM; on D(1A) dopamine receptor, 800 nM.
Regarding `Cc1ccc(N(CC2=NCCN2)c2cccc(O)c2)cc1` [SMR000059054], the Ki at D(2) dopamine receptor was 2000 nM; at D(1A) dopamine receptor it was more than 10000 nM.
In the case of `NC(=O)C1(N2CCCCC2)CCN(CCCC(=O)c2ccc(F)cc2)CC1` [CAS_1893-33-0], the Ki turned out to be 31 nM at D(2) dopamine receptor and 4900 nM at D(1A) dopamine receptor.
Take `CCN(CC)C(=O)[C@@H]1C=C2c3cccc4[nH]c(Br)c(c34)C[C@H]2N(C)C1` [LSD,2-Bromo]: the Ki at D(2) dopamine receptor came to 4 nM; at D(1A) dopamine receptor, 54 nM.
For the compound `NCCc1ccc(O)c(O)c1`, at D(1A) dopamine receptor, the Ki is 17.5 nM and 16.8 nM and 11.7 nM.
For the compound `CC(C)C[C@H]1C(=O)N2CCC[C@H]2[C@]2(O)O[C@](NC(=O)[C@@H]3C=C4c5cccc6[nH]c(Br)c(c56)C[C@H]4N(C)C3)(C(C)C)C(=O)N12` [Bromocriptine+ (GTP+)], the Ki on D(2) dopamine receptor amounted to 2.5 nM.
As for `CC[C@@H](CO)NC(=O)[C@@H]1C=C2c3cccc4c3c(cn4C)C[C@H]2N(C)C1`, the Ki came out at 160 nM at D(2) dopamine receptor and 290 nM at D(1A) dopamine receptor.
Turning to `CN1CCN(CCCN2c3ccccc3Sc3ccc(C(F)(F)F)cc32)CC1`, the Ki at D(2) dopamine receptor was determined as 2.1 nM; on D(1A) dopamine receptor, 740 nM.
With `OCCN1CCN(CCCN2c3ccccc3Sc3ccc(C(F)(F)F)cc32)CC1` [2-[4-[3-[2-(trifluoromethyl)phenothiazin-10-yl]propyl]piperazin-1-yl]ethanol;hydrochloride], on D(2) dopamine receptor, the Ki is 0.88 nM and 0.6 nM and 0.3 nM and 0.8 nM.
For the compound `O=C(CCCN1CCC(O)(c2ccc(Cl)cc2)CC1)c1ccc(F)cc1` [4-[4-(4-Chloro-phenyl)-4-hydroxy-piperidin-1-yl]-1-(4-fluoro-phenyl)-butan-1-one;propionate(HCl)], the Ki on D(1A) dopamine receptor was 920 nM and 1060 nM and 1100 nM.
`CNCC(O)c1ccc(O)c(O)c1` (stereo not given) [EPINEPHRINE]: the Ki at D(2) dopamine receptor was 2600 nM and > 10000 nM; at D(1A) dopamine receptor, 280 nM and 1200 nM.
Take `CN1CCC(=C2c3ccccc3C=Cc3ccccc32)CC1` [5-(1-methylpiperidylidene-4)-5H-dibenzo(a,d)cyclopheptene]: the Ki on D(2) dopamine receptor came to 65 nM; at D(1A) dopamine receptor, 1200 nM.
For `OCCN1CCN(CCCC2c3ccc(F)cc3Sc3ccc(C(F)(F)F)cc32)CC1` (stereo not given) [NSC_68751] the same measures were 2.6 nM and 1900 nM.
Regarding `CN(C)CCCN1c2ccccc2Sc2ccccc21`, the Ki is 72 nM at D(2) dopamine receptor and 7100 nM on D(1A) dopamine receptor.
Compound `CC(C)NC(=O)C1C=C2c3cccc4[nH]cc(c34)CC2N(C)C1` (stereo not given) [CAS_60-79-7] registered a Ki at D(1A) dopamine receptor of 61 nM.
Turning to `COc1ccccc1N1CCN(CCCC(=O)c2ccc(F)cc2)CC1` [Fluanisone], the figures for the Ki at D(2) dopamine receptor and at D(1A) dopamine receptor were 3.8 nM and 800 nM, respectively.
On to `CC(C)=CCN1CC[C@@]2(C)c3cc(O)ccc3C[C@@H]1[C@@H]2C` [Talwin], for which the values for the Ki at D(2) dopamine receptor and at D(1A) dopamine receptor were 3500 nM and more than 10000 nM, respectively.
On the same counts, the results for `OC1(c2ccc(Cl)c(C(F)(F)F)c2)CCN(CCCC(c2ccc(F)cc2)c2ccc(F)cc2)CC1` [Penfluridol] are 5.6 nM and 1600 nM.
Consider `CC(C)C[C@H]1C(=O)N2CCCC2[C@]2(O)O[C@](NC(=O)[C@@H]3C=C4c5cccc6[nH]cc(c56)CC4N(C)C3)(C(C)C)C(=O)N12` (stereo partly drawn) [ALPHA-ERGOCRYPTINE], for which the Ki on D(2) dopamine receptor is 1.3 nM; on D(1A) dopamine receptor, 69 nM.
Take `O=C(CCCN1CC=C(n2c(=O)[nH]c3ccccc32)CC1)c1ccc(F)cc1` [1-(1-(4-(4-fluorophenyl)-4-oxobutyl)-1,2,3,6-tetrahydropyridin-4-yl)-1H-benzo[d]imidazol-2(3H)-one]: the Ki on D(2) dopamine receptor was found to be 1 nM; on D(1A) dopamine receptor, 880 nM.
On the same counts, the results for `CC(CN1c2ccccc2Sc2ccccc21)N(C)C` (stereo not drawn) [N,N,alpha-trimethyl-10H-phenothiazine-10-ethanamine] are 240 nM and more than 10000 nM.
Turning to `O=C1NCN(c2ccccc2)C12CCN(CCCC(c1ccc(F)cc1)c1ccc(F)cc1)CC2`, the Ki worked out at 0.6 nM at D(2) dopamine receptor and 1400 nM at D(1A) dopamine receptor.
On the same counts, the results for `CC(C)[C@H]1C(=O)N2CCC[C@H]2[C@]2(O)O[C@](NC(=O)[C@@H]3C=C4c5cccc6[nH]cc(c56)C[C@H]4N(C)C3)(C(C)C)C(=O)N12` [ERGOCORNINE] are 0.7 nM and 36 nM.
On the same counts, the results for `CC(COc1ccccc1)N(CCCl)Cc1ccccc1` (stereo not given) are 140 nM and more than 10000 nM.
On the same counts, the results for `CNCCc1ccc(O)c(O)c1` [CAS_62-32-8] are 530 nM and 23 nM.
For the compound `O=C(CCCN1CCN(c2ccccn2)CC1)c1ccc(F)cc1` [1-(4-Fluoro-phenyl)-4-(4-pyridin-2-yl-piperazin-1-yl)-butan-1-one(Azaperone)], the inhibition constant (Ki) at D(2) dopamine receptor was determined as 10 nM; on D(1A) dopamine receptor, 1700 nM.
With `NC1CCc2cc(O)c(O)cc2C1` (stereo not given), the Ki was found to be 120 nM at D(2) dopamine receptor and 11 nM at D(1A) dopamine receptor.
In the case of `CN1CCN2c3ccccc3Cc3ccccc3[C@H]2C1` [MIANSERIN (+)], the Ki came out at 620 nM at D(2) dopamine receptor and 2500 nM on D(1A) dopamine receptor.
For `CN(C)CCCN1c2ccccc2CCc2ccccc21`, the Ki at D(2) dopamine receptor is 180 nM; at D(1A) dopamine receptor, more than 10000 nM.
`O=C(CCCN1CCC(O)(c2ccc(Cl)c(C(F)(F)F)c2)CC1)c1ccc(F)cc1` [CAS_10457-91-7]: the results for the Ki on D(2) dopamine receptor and at D(1A) dopamine receptor were 0.5 nM and 360 nM, respectively.
On the same counts, the results for `O=C(CCCN1CCC(O)(c2ccc(Br)cc2)CC1)c1ccc(F)cc1` [BROMPERIDOL] are 1.4 nM and 600 nM.

These data come from BindingDB's records for PubMed 995128 (1976).
